Patent US20220401514A1, “ANTIMICROBIAL, BACTERIOPHAGE-DERIVED POLYPEPTIDES AND THEIR USE AGAINST GRAM-NEGATIVE AND ACID-FAST BACTERIA” (CONTRAFECT CORPORATION, priority 2019, published 2022)
Where two headings read alike, the source gives them in different places.

Key:
[1] = system: M. scrofulaceum; assay: 45 hr MIC against M. scrofulaceum (NTM); format: cell-based, Mycobacterium scrofulaceum; details: M. scrofulaceum Prissick and Masson ATCC 19981
[2] = system: M. fortuitum; assay: 45 hr MIC against M. fortuitum (NTM); format: cell-based, Mycobacterium fortuitum; details: M. fortuitum subsp. Fortuitum da Costa Cruz. ATCC 6841
[3] = system: M. kansasii Hauduroy ATCC 12478; assay: 45 hr MIC against M. kansasii (NTM), Mueller Hinton broth; format: cell-based, Mycobacterium kansasii
[4] = system: S. maltophilia; assay: MIC against S. maltophilia isolates; format: cell-based, Stenotrophomonas maltophilia; details: S. maltophilia isolates (n per peptide in table)
Protocol: (§1) Determination of Minimal Inhibitory Concentrations (MIC).
In addition to the results discussed above in Example 3, further testing was conducted on several Chp peptides. MIC values were determined against different species, including P. aeruginosa, K. pneumoniae, A. baumannii, E. cloacae, E. coli, and S. maltophilia, and the results are presented below in Tables 40-45, wherein n=number of isolates tested for each species and MIC is measured as μg/mL.

[5] = system: Pseudomonas aeruginosa; assay: microbe, parasite or virus in culture; format: cell-based; details: P. aeruginosa isolates (n per peptide in table)
[6] = system: Acinetobacter baumannii; assay: microbe, parasite or virus in culture; format: cell-based; details: for MIC50 / MIC100 / MIC Range: A. baumannii isolates (n per peptide in table); for MIC: Acinetobacter baumannii ATCC BAA 747, CAA supplemented with human serum
[7] = system: Mycobacterium tuberculosis strains
Protocol: MIC values for various Chp peptides were determined using the CLSI method for broth microdilution in 96-well microtiter format.
Next, MIC values for various Chp peptides were determined using the CLSI method above for broth microdilution in 96-well microtiter format for two different Mycobacterium tuberculosis strains. The MIC was determined as explained above for the NTM strains.

[8] = system: Klebsiella pneumoniae; format: cell-based; details: for MIC50 / MIC100 / MIC Range: K. pneumoniae isolates (n per peptide in table); for MIC: Klebsiella pneumoniae HM-44, CAA supplemented with human serum
Protocol: as §1
(§2) Additional MIC testing was performed for several peptides against the ESKAPE pathogens Escherichia coli, Enterobacter cloacae, Klebsiella pneumoniae, and Acinetobacter baumannii, in CAA supplemented with human serum (Table D).

[9] = system: M. avium; assay: 45 hr MIC against M. avium (NTM); format: cell-based, Mycobacterium avium; details: M. avium Chester ATCC 700898
[10] = system: M. intracellulare; assay: 45 hr MIC against M. intracellulare (NTM); format: cell-based, Mycobacterium intracellulare; details: M. intracellulare (Cuttino and McCabe) Runyon ATCC 13950
[11] = system: M. smegmatis; assay: 45 hr MIC against M. smegmatis (NTM), Mueller Hinton broth; format: cell-based, Mycobacterium smegmatis
[12] = system: carbapenem-resistant bacterial strains; assay: organism not typed; format: cell-based
Source text: as §1

[13] = system: carbapenem-resistant P. aeruginosa clinical isolate CFS-1292; assay: MIC by modified CLSI broth microdilution against P. aeruginosa CFS-1292 (CAA, CAA + human serum); format: cell-based, Pseudomonas aeruginosa; details: for MIC (μg/mL) against CFS-1292 in 100% CAA (1st run/2nd run): 1st run or single value
[14] = Stability assessment in 100% CAA; format: in vitro ADME; parameters: unit not given beside the values
Protocol: Stability was assessed after incubation in 100% human serum at 37° C. after 10 minutes, 1 hour, and 2 hours.
Stability assessment was further conducted in 100% CAA and rabbit serum using the same methodology discussed above.

[15] = system: Escherichia coli; assay: microbe, parasite or virus in culture; format: cell-based; details: for MIC: Escherichia coli ATCC 25922, CAA supplemented with human serum
Protocol: as §1, §2

[16] = system: Enterobacter cloacae; assay: microbe, parasite or virus in culture; format: cell-based; details: for MIC: Enterobacter cloacae ATCC 13047, CAA supplemented with human serum
Protocol: as §1, §2

[17] = Mycobacterium tuberculosis (Zopf) Lehmann and Neumann ATCC 25177
[18] = Mycobacterium tuberculosis (Zopf) Lehmann and Neumann ATCC 35817
[19] = carbapenem-resistant isolate PA19
[20] = carbapenem-resistant isolate PA20
[21] = carbapenem-resistant isolate PA21
[22] = carbapenem-resistant isolate PA22
[23] = carbapenem-resistant isolate PA23
[24] = carbapenem-resistant isolate PA24
[25] = carbapenem-resistant isolate WLC-452
[26] = E. coli isolates (n per peptide in table)
[27] = E. cloacae isolates (n per peptide in table)

Sequence	45 hr MIC [1]	45 hr MIC [2]	45 hr MIC [3]	MIC50 [4]	MIC100 [4]	MIC50 [5]	MIC100 [5]	MIC50 [6]	MIC100 [6]	MIC Range [6]	MIC [7, 17]	MIC [7, 18]	MIC50 [8]	45 hr MIC [9]	45 hr MIC [10]	45 hr MIC ([11]; M. smegmatis MC^2 155, Run #1)	45 hr MIC ([11]; M. smegmatis MC^2 155, Run #2)	MIC (μg/mL) against CFS-1292 in 100% CAA (1st run/2nd run) [13]	MIC (μg/mL) against CFS-1292 in CAA + […] human serum [13]	MIC (100% CAA) [14]	other results
MAKKIRNKARDRRIFTRTASRMHKANRTPRFMRGGIRL [ALCES1]	2 µg/mL	4 µg/mL	2 µg/mL	4 µg/mL	8 µg/mL	>8 µg/mL	>8 µg/mL	2 µg/mL	2 µg/mL	1 to 2 µg/mL	32 µg/mL	8 µg/mL	>8 µg/mL	8 µg/mL	2 µg/mL	1 µg/mL	2 µg/mL	–	–	–	MIC100 [8]: >8 µg/mL
MAYRGFKTSRVVKHRVRRRWFNHRRRYR [Spi1]	2 µg/mL	8 µg/mL	0.5 µg/mL	2 µg/mL	2 µg/mL	4 µg/mL	8 µg/mL	1 µg/mL	1 µg/mL	1 µg/mL	32 µg/mL	16 µg/mL	2 µg/mL	>64 µg/mL	4 µg/mL	2 µg/mL	16 µg/mL	2 µg/mL	0.25 µg/mL	1	MIC Range [5]: 2 to 8 µg/mL; MIC [12, 19]: 2 µg/mL; MIC [12, 20]: 4 µg/mL; MIC [12, 21]: 8 µg/mL; MIC [12, 22]: 4 µg/mL; MIC [12, 23]: 8 µg/mL; MIC [12, 24]: 4 µg/mL; MIC [12, 25]: 2 µg/mL; MIC100 [8]: 4 µg/mL; MIC Range [8]: 2 to 4 µg/mL
MIVRRHKMSRRRSRKLFSKTASRTRSKNLRSRPMRGGYRI [Unp4]	4 µg/mL	4 µg/mL	4 µg/mL	–	–	–	–	–	–	–	32 µg/mL	16 µg/mL	–	1 µg/mL	4 µg/mL	–	16 µg/mL	2 µg/mL	>16 µg/mL	–	–
MKMRKRTDKRVFTRTAAKSKKVNIAPKIFRGGIRL [Unp1]	8 µg/mL	8 µg/mL	8 µg/mL	–	–	–	–	–	–	–	–	–	–	1 µg/mL	32 µg/mL	4 µg/mL	2 µg/mL	4 µg/mL	4 µg/mL	4	MIC [15]: 0.5 µg/mL; MIC [16]: >32 µg/mL; MIC [6]: 8 µg/mL; MIC [8]: 8 µg/mL
MRPVKRSRVNKARSAGKFRKQVGKTKMANLRSNPMRGGWRL [HH3930]	16 µg/mL	8 µg/mL	32 µg/mL	–	–	–	–	–	–	–	–	–	–	4 µg/mL	16 µg/mL	4 µg/mL	16 µg/mL	2 µg/mL	4 µg/mL	2	–
MRRKKMSRGKSKKLFRRTAKRVHRKNLRARPMRGGIRM [AVQ206]	4 µg/mL	2 µg/mL	2 µg/mL	–	–	–	–	–	–	–	–	–	–	1 µg/mL	4 µg/mL	4 µg/mL	16 µg/mL	0.5 µg/mL	0.25 µg/mL	<0.25	–
MRRKVKNTKRHQWRLTHSARSIKRANIMPSNPRGGRRF [Spi2]	8 µg/mL	4 µg/mL	1 µg/mL	>8 µg/mL	>8 µg/mL	>8 µg/mL	>8 µg/mL	2 µg/mL	2 µg/mL	2 to 8 µg/mL	8 µg/mL	8 µg/mL	>8 µg/mL	>64 µg/mL	>64 µg/mL	4 µg/mL	4 µg/mL	16 µg/mL	0.25 µg/mL	4	MIC50 [15, 26]: 4 µg/mL; MIC100 [15, 26]: >8 µg/mL; MIC [15]: 0.25 µg/mL; MIC50 [16, 27]: >8 µg/mL; MIC100 [16, 27]: >8 µg/mL; MIC [16]: 4 µg/mL; MIC Range [4]: >8 µg/mL; MIC Range [5]: >8 µg/mL; MIC [12, 19]: >8 µg/mL; MIC [12, 20]: >8 µg/mL; MIC [12, 21]: >8 µg/mL; MIC [12, 22]: >8 µg/mL; MIC [12, 23]: >8 µg/mL; MIC [12, 24]: >8 µg/mL; MIC [12, 25]: >8 µg/mL; MIC [6]: 16 µg/mL; MIC100 [8]: >8 µg/mL; MIC Range [8]: >8 µg/mL; MIC [8]: 16 µg/mL
MRRYNVNKGKSAKKFRKQVSKTKVANLRSNPMRGGWRL [AGT915]	>64 µg/mL	1 µg/mL	1 µg/mL	–	–	–	–	–	–	–	–	–	–	>64 µg/mL	>64 µg/mL	4 µg/mL	1 µg/mL	2 µg/mL	0.25 µg/mL	2	–
